Calls of active or inactive are those of the source.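 How the source made its calls: active means compounds giving half or more protection of infected cells from virus-caused growth loss, again on retest; inactive means the rest.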

The values that follow come from PubChem BioAssay AID179 (DTP/NCI, 2004).

For the test, the system named is CEM cells HIV-1 protection, formazan growth assay. The test is described as follows: NCI AIDS Antiviral Assay. Particulars: for IC50: measured here: growth of uninfected CEM cells. The essentials:
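Screen of anti-HIV-1 activity in human CEM cells using a formazan-based growth measurement at five drug concentrations. Hits with 50% or greater protection were repeated, and confirmation required reproducible complete protection.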

`CCOP1(=O)CC(C)=C(Cl)C(OC)C1` (centres undefined): the EC50 is more than 200 µM and the IC50 was determined as 107 µM. With `COc1cc(C(c2c(O)c3ccccc3oc2=O)c2c(O)c3ccccc3oc2=O)cc(OC)c1O`, the EC50 was more than 200 µM and the IC50 stood at 15.5 µM. `COC(=O)C[C@](O)(CCC(C)(C)O)C(=O)O[C@@H]1C(OC)=C[C@]23CCCN2CCc2cc4c(cc2[C@H]13)OCO4`: the result was inactive. Regarding `COc1ccc(NC(=O)CC(=O)N/N=C/c2ccc(N(CCC#N)S(=O)(=O)c3ccccc3)cc2)cc1`, the EC50 was more than 251 µM and the IC50 is more than 251 µM. On to `CN(C)c1cccc2c(S(=O)O)cccc12`, for which the EC50 was more than 200 µM and the IC50 was more than 200 µM. `CC(=Nc1ccccc1C(=O)[O-])c1c([O-])ccc2c(C)cc(=O)oc12.[OH3+].[OH3+].[OH3+].[Zn+2]`: the EC50 is more than 2.29 µM and the 50% inhibitory concentration (IC50) is more than 2.29 µM. For the compound `C/C=C/c1cc(=O)c([C@@H]2OC(=O)c3cc(OC)cc(OC)c32)co1`, the EC50 is more than 200 µM and the IC50 came to 83.2 µM.

With `CC[N+]1(C)CCC(O)(c2ccc(Cl)c(Cl)c2)C(C(=O)c2ccc(Cl)c(Cl)c2)C1` (centres undefined), the EC50 was more than 200 µM and the IC50 is 22.4 µM. Taken in the same sequence, the figures for `NC(N)=NCCCC(NC(=O)OCCCCCn1ccc(N)nc1=O)C(=O)O` (centres undefined) were more than 200 µM and more than 200 µM. The corresponding values for `CN(C)c1ccc(/C=C2\C=Nc3ccccc32)cc1` are more than 20.9 µM and 14.1 µM. With `Cc1oc2c(c(C)nn2-c2ccccc2)c(=O)c1Cl`, the EC50 is more than 200 µM and the IC50 was found to be 174 µM. For the compound `[N-]=[N+]=NCc1nc(N)c2c3c(sc2n1)CCCC3`, the EC50 is more than 200 µM and the IC50 was determined as 1.12 µM. The corresponding values for `CCCCC(CC)CCC(CCC(CC)CCCC)S(=O)(=O)O` (centres undefined) are more than 200 µM and more than 200 µM. Consider `CNC(=S)NNC1=NCCCN1`, for which the EC50 was more than 200 µM and the IC50 is more than 200 µM. As for `Cc1ccc(C(=O)Nc2ccc(S(=O)(=O)O)c3cc(S(=O)(=O)O)cc(S(=O)(=O)O)c23)cc1NC(=O)Nc1cc(C(=O)Nc2ccc(S(=O)(=O)O)c3cc(S(=O)(=O)O)cc(S(=O)(=O)O)c23)ccc1C`, the EC50 was 138 µM and the IC50 came out at 209 µM. Taken in the same sequence, the figures for `CC(=O)N1C(Nc2nccs2)CCN1c1ccccc1` (centres undefined) were more than 200 µM and 26.9 µM. The corresponding values for `COc1cc(C(O)CCBr)c(OC)cc1C` (centres undefined) are more than 200 µM and 2.29 µM. The corresponding values for `CCCCS(=O)(=O)c1ccc(O)c(C(=O)Nc2cccc(C(F)(F)F)c2)c1` are more than 170 µM and 1.91 µM. With `CO/N=C\c1c2c(O)c3c(O)c(C)c4c(c3c1O)C(=O)C(C)(O/C=C\C(OC)C(C)C(OC(C)=O)C(C)C(O)C(C)C(O)C(C)/C=C\C=C(\C)C(=O)N2)O4` (centres undefined), the EC50 is more than 151 µM and the IC50 was 15.8 µM. In the case of `CCOC(=O)Cn1c2ccc(Br)cc2c2nc3ccccc3nc21`, the EC50 is more than 100 µM and the IC50 is more than 100 µM. As for `CCC[CH2][Sn]([CH2]CCC)([O]C(=O)c1cc(F)ccc1F)[O][Sn]([CH2]CCC)([CH2]CCC)[O]C(=O)c1cc(F)ccc1F`, the EC50 is more than 9.12 µM and the IC50 is 1.74 µM.

As to `Cc1ccccc1NC(=O)Cc1csc2[n+]1C(=O)/C(=C\c1ccc3c(c1)OCO3)S2`, the EC50 was more than 200 µM and the IC50 was 38.9 µM. The corresponding values for `COc1ccc2c(c1)[n+](=O)c(C(=O)C/C(=N/OCCCc1ccccc1)C(=O)NC13CC4CC(CC(C4)C1)C3)c(C)n2[O-]` are more than 39.8 µM and more than 39.8 µM. Turning to `O=c1cc(-c2ccccc2)oc2ccc(-c3ccc4oc(-c5ccccc5)cc(=O)c4c3)cc12`, the EC50 was more than 200 µM and the IC50 was 27.5 µM.

Take `Cn1c2ccccc2c2nnc(N/N=C/c3ccncc3)nc21`: the EC50 is more than 200 µM and the IC50 was more than 200 µM. As for `CN(C)/N=C(\CCN1CCCC1)CC(c1ccccc1)c1c(O)c2ccccc2oc1=O` (centres undefined), the EC50 is more than 39.8 µM and the IC50 is more than 39.8 µM. Turning to `O=[N+]([O-])c1ccc(-c2cc(O)c3nc4ccccc4n3c2)cc1`, the EC50 is 178 µM and the IC50 is more than 200 µM.

For `CCOC(=O)C1(Cc2ccc(C)cc2)Cc2ccc(C)cc2C1=O` (centres undefined), the EC50 was more than 200 µM and the IC50 worked out at 4.68 µM. Regarding `CC(=O)O[C@H]1[C@H](OC(C)=O)[C@@H](CN=[N+]=[N-])OCO[C@@H]1CN=[N+]=[N-]`, the outcome was inactive.

Regarding `CCCC(C)C(=Nc1ccc(Cl)c(Cl)c1)N(C)C` (centres undefined), the EC50 was more than 200 µM and the IC50 was found to be 28.2 µM. For `CC1OC(=O)C(C(C)C)NC(=O)C(C(C)C)OC(=O)C(C(C)C)NC(=O)C(C)OC(=O)C(C(C)C)NC(=O)C(C(C)C)OC(=O)C(C(C)C)NC(=O)C(C)OC(=O)C(C(C)C)NC(=O)C(C(C)C)OC(=O)C(C(C)C)NC1=O` (centres undefined), the EC50 is more than 0.02 µM and the IC50 was 0.00102 µM.

On to `O=C1/C(=C/c2ccc3c(c2)CCC3)Cc2cc3c(cc21)CCC3`, for which the EC50 is more than 200 µM and the IC50 was more than 200 µM. As for `Cc1ccc(NC(=O)CCc2nnc3s/c(=C\C=C\c4ccccc4)c(=O)n23)cc1`, the EC50 is more than 61.7 µM and the IC50 is more than 61.7 µM. As for `Cc1n[nH]c2ccc([N+](=O)[O-])cc2c1=O`, the EC50 is more than 57.5 µM and the IC50 is more than 57.5 µM. With `CNC(=O)N(C)CN(C)C(=O)NC`, the EC50 was more than 479 µM and the IC50 was 229 µM. For the compound `N#Cc1ccc(-c2ccc(Cl)cc2)n(C2OC(CO)C(O)C(O)C2O)c1=S` (centres undefined), the EC50 was more than 200 µM and the IC50 was more than 200 µM. For the compound `CC(=O)Nc1ccc(S(=O)(=O)N/N=C/c2ccco2)cc1`, the EC50 was more than 589 µM and the IC50 worked out at 309 µM. With `Cc1ccc2c(c1)[nH]c(=S)n2C=C1C(=O)NC(=O)NC1=O`, the EC50 is more than 100 µM and the IC50 is more than 100 µM. As for `c1ccc(COCC23CCN(Cc4ccccc4)C(CC(OCc4ccccc4)C2)S3)cc1` (centres undefined), the EC50 is more than 200 µM and the IC50 was 45.7 µM.

With `c1cnc2c(c1)CCc1cc3cccnc3nc1-2`, the EC50 is more than 200 µM and the IC50 is 186 µM. As for `Cc1ccccc1SCc1nc2ccccc2c(C)[n+]1[O-]`, the EC50 is 21.9 µM and the IC50 is 102 µM.

As for `N#C/C(=C1\SC(=O)CN1c1ccccc1)c1nc2ccccc2o1`, the EC50 was more than 200 µM and the IC50 was more than 200 µM. As for `O=[N+]([O-])c1cc(Cl)cc2cc(Br)cnc12`, the EC50 was more than 200 µM and the IC50 is more than 200 µM. Take `O=C1C2C(C(=O)N1c1ccccc1)C1(c3ccccc3)SC2(c2ccccc2)c2c(-c3ccccc3)sc(-c3ccccc3)c21` (centres undefined): the result was inactive. As to `COc1cc(Oc2nc3ccc(C(F)(F)F)cc3nc2-c2ccccc2)cc(OC)c1OC`, the EC50 is more than 93.3 µM and the IC50 amounted to 57.5 µM.

Consider `COC(=O)c1sc(C(=O)OC)c2c1CSC2`, for which the result was inactive. With `CC(=O)NNC=N/C(C#N)=C(\N)C#N`, the EC50 was more than 200 µM and the IC50 is more than 200 µM. `O=C1Nc2ccc(cc2)Cc2ccc(cc2)NC(=O)N2CCN(CC2)C(=O)Nc2ccc(cc2)Cc2ccc(cc2)NC(=O)N2CCN1CC2`: the EC50 was more than 10.7 µM and the IC50 is more than 10.7 µM.

As for `CC1=C(C(=O)Nc2ccc(Cl)c(Cl)c2)C(c2ccco2)C(C(=O)Nc2ccc(Cl)c(Cl)c2)=C(C)N1`, the EC50 was more than 33.9 µM and the IC50 is 13.8 µM. For `CC(C)(C)c1cc(C(O)(C(F)(F)F)C(F)(F)F)c2c(c1)C(C(F)(F)F)(C(F)(F)F)OC(c1ccccc1)(C(C)(C)C)N2` (centres undefined), the outcome was inactive. Regarding `Cc1cc2nc3c4ccccc4scc-3c2cc1C`, the EC50 is more than 200 µM and the IC50 was 0.324 µM. Regarding `O=C1C=C2CCC[C@H]3OC(=O)C[C@@]23CC1`, the result was inactive. `Cc1ccc(-c2c(C#N)c(-c3ccccc3)c(C#N)c(=O)n2NS(=O)(=O)c2ccc(C)cc2)cc1`: the EC50 was more than 200 µM and the IC50 is 57.5 µM. As to `Cc1nc(Nc2ccc(Cl)c(Cl)c2)sc1C(=O)/C=C/c1ccc2c(c1)OCO2`, the EC50 is more than 200 µM and the IC50 came to 13.5 µM. As for `O=C(OCCN1CCCCC1)C(c1ccccc1)C1(O)CCSCC1` (centres undefined), the EC50 is more than 200 µM and the half-maximal inhibitory concentration (IC50) is more than 200 µM. Take `O=C1c2cccc3cccc(c23)C(=O)N1c1ncn[nH]1`: the EC50 was more than 100 µM and the IC50 was more than 100 µM.

In the case of `S=C(N/N=C(/c1ccccc1)c1ccccn1)Nc1ccccc1`, the EC50 was more than 0.2 µM and the IC50 was found to be 0.0977 µM. Take `CCOC(=O)C12CC1(C(=O)OCC)C1CCC2C1` (centres undefined): the EC50 is more than 200 µM and the IC50 was more than 200 µM. In the case of `CC[n+]1c(/C=C/c2ccc(N(CCCl)CCCl)cc2)ccc2cc(NC(=O)/C=C/c3ccccc3)ccc21`, the result was inactive.

As to `O=C1c2ccccc2OC(Cl)(c2ccccc2)C1Cl` (centres undefined), the EC50 is more than 200 µM and the IC50 came to 31.6 µM. As to `CCN(CCO)CCNc1ccc(C)c2sc3ccccc3c(=O)c12`, the EC50 is more than 200 µM and the IC50 came out at 2.88 µM. On to `CCN(CC)CC(=O)Nc1ccccc1C`, for which the EC50 was more than 100 µM and the IC50 is more than 100 µM. Consider `O=S1(=O)C=C2CCCCC21` (centres undefined), for which the EC50 is more than 1580 µM and the IC50 was more than 1580 µM. As to `CC1=NN(C(=O)c2ccc([N+](=O)[O-])cc2)C(=O)C1N=Nc1ccccc1C(=O)O` (centres undefined), the result was inactive. On to `COc1ccc(OC)c(NS(=O)(=O)c2ccc3nc(C)n(NS(=O)(=O)c4cc(OC)ccc4OC)c(=O)c3c2)c1`, for which the EC50 was more than 200 µM and the IC50 came out at 43.7 µM. Taken in the same sequence, the figures for `CC(=O)Oc1cc2c(c3ncccc13)OC(C)(C)C2` were more than 200 µM and 11 µM. With `C=C1CCC2C(C)(CO)C(O)CCC2(C)C1C/C=C1/CCOC1=O` (centres undefined), the outcome was inactive. Consider `NS(=O)(=O)c1c(O)c2ccccc2oc1=O`, for which the outcome was inactive. `C1CCC(OCc2nnn3c2CCC3)OC1` (centres undefined): the result was inactive.

In the case of `CCOC(=O)C1(N)CCc2[nH][nH]c(=O)c2C1` (centres undefined), the EC50 is more than 200 µM and the IC50 was more than 200 µM.
